In US10729693B2, “Compositions and methods for the treatment of endometriosis” (PONCE MEDICAL SCHOOL FOUNDATION, INC., priority 2018, dated 2020):

Experiments:
[1] = system: CRHR1, CRHR2, CRH and GR mRNA in hippocampus; experiment: qRT-PCR of mRNA levels in hippocampus; assay type: in vivo, rat; conditions: day 60
Description: Endometriosis vesicles and normal uterine tissue from endometriosis or sham rats, were lysed in an RLT buffer (QIAGEN, Germantown, Md.) using the BULLET BLENDER Tissue Homogenizer (NEXT ADVANCE, Averill Park, N.Y.). The total RNA from the lysates were extracted according to RNEASY Mini Kit manufacturer's protocol (QIAGEN, Germantown, Md.). RNA concentration and purity were measured on a NanoDrop™ 2000 UV spectrophotometer (Thermo Scientific™, Wilmington, USA). Concentration and quality of RNA samples were acquired based on the ratio of absorbance at 260/280 nm in the spectrophotometer. To carry out the synthesis of cDNA from RNA samples a total reaction volume of 20 μl including 0.1 μg of total RNA concentration and synthesis reagents was used. A iScript™ cDNA Synthesis Kit was used according to manufacturer's protocol (BIO-RAD, Hercules, Calif.). Reactions were carried out in T-100™ thermal cycler (BIO-RAD, Hercules, Calif.). RT-PCR running method was as follows: 25° C. for 5 min, 42° C. for 30 min, 85° C. for 5 min. Samples were stored at −80° C. for later experimentation or qRT-PCR.
Real time quantitative PCR (qPCR) was used to evaluate changes in mRNA expression. For this, 25 μl of a total volume of reaction assay was used with 1:10 dilution of cDNA with iQ™ SYBR Green Supermix (BIO-RAD Hercules, Calif.) in a 96 well plate according to the manufacturer protocol and amplified in a Quant Studio™ 12 K Flex Real time PCR System (Applied Biosystems™, Carlsbad, Calif.). Commercial primers for CRH, UCN1 CRHR1, CRHR2 and glucocorticoid receptor (GR) were purchased from QIAGEN (Germantown, Md.). Real time PCR cycles protocol was as follows: 95° C. for 10 min. for enzyme activation followed by 40 cycles of denaturing at 95° C. for 15 sec. and annealing at 60° C. for 1 min. All changes in gene expression were normalized against GAPDH of each sample. CT values and changes per gene expression level were automatically analyzed by the Quantstudio™ 12 K Flex Software (Applied Biosystems™, Carlsbad, Calif.). All samples were run in duplicate. For comparison purposes, mRNA from sham rats were always run within the same plate as experimental samples from vehicle treated and antalarmin treated groups.
Endometriosis and antalarmin have long-lasting effects in the brain. Previous work reported a decrease in CRH within hippocampus of animals with endometriosis compared to sham rats that were subject to stress. Given that antalarmin readily crosses the blood brain barrier, the effects of treatment in the hippocampus was quantified. […] It appears that the increase in CRH1 was balanced out by an equally similar increase in CRH2. This was not observed in the vehicle treated groups (FIGS. 10A and 10B). mRNA was collected and quantified as described in Example 1. […]

implantation sites = conditions: rodents; Fas-ligand immune tolerance dependent mechanism; cited from earlier work
[2] = normalized to sham, large variability

In the case of `CCCCN(CC)c1nc(C)nc2c1c(C)c(C)n2-c1c(C)cc(C)cc1C` [antalarmin], the “hippocampal CRH mRNA” value ([1]; compared to sham) is reported as “increase in hippocampal CRH mRNA of similar magnitude”, the “hippocampal GR mRNA” value ([1]; compared to sham) is reported as “fourfold increase” and the “hippocampal CRHR1 mRNA increase” value [1, 2] is reported as 15 fold. The “hippocampal CRHR2 mRNA increase” value [1, 2] was 15 fold and the “reduction of the number of implantation sites” value (implantation sites) was 70%.
